These results are taken from patent US4732983A, “Pyschotropic polycyclic imides” (American Home Products Corporation, priority 1987, dated 1988).

In experiment [1] the target is T1, D-2 dopamine receptor (Rattus norvegicus, UniProt P61169).
T1 construct: homogenized limbic brain tissue is incubated with; from tissue; host or cells: homogenized limbic brain tissue
Description: [3H]spiroperidol binding inhibition, homogenized limbic brain tissue.

In experiment [2] the test system is CF-1 mice (Charles River). Description: Antagonism of apomorphine-induced stereotyped behavior and climbing. The format is in vivo, mouse. Conditions: for ED50: Mus musculus, po; for ED50 / Apomorphine Antagonism ED50, stereotypy / Apomorphine Antagonism ED50, climbing: apomorphine 1 mg/kg s.c.; for Apomorphine Antagonism ED50, stereotypy / Apomorphine Antagonism ED50, climbing: p.o.; for ratio of the ED50 for stereotyped behavior to the ED50 for climbing: apomorphine-induced, standard antipsychotic drugs. The method, then: Readings are repeated every five minutes during a thirty minute test session. […] The ratio of the ED50 for stereotyped behavior to the ED50 for climbing is calculated.

Experiment [3] has as its system rats. The experiment is described as follows: Conditioned avoidance, discrete trial (lever press substituted for shelf-jump), Avoidance Block. The experiment is classed as in vivo, rat. The settings on record: for ED50: Rattus norvegicus, po, read-out: Conditioned Avoidance Discrete Trial AB50 (Avoidance Block); for Conditioned Avoidance Discrete Trial AB50 (Avoidance Block): p.o.

The subject of experiment [4] is male CD rats (Charles River). The experiment is described as follows: Conditioned avoidance, shelf-jump response. The format is in vivo, rat. Conditions: 40 mg/kg i.p., single dose. The method, then: The rat can avoid the electric shock by jumping to an exposed shelf (shelf-jump response). A response during the initial warning tone is considered an avoidance response, while a response during shock delivery is considered as escape response. […] The compounds of this invention were tested at a single dose (40 mg./kg. i.p.) in this procedure and were rated relative to their inhibition of conditioned avoidance responding.

The target in experiment [5] is T2, 5-HT1A serotonin receptor (Rattus norvegicus, UniProt P19327).
T2 construct: 44: 1685-1696, 1985; from tissue
T2 sequence (P19327 1-422): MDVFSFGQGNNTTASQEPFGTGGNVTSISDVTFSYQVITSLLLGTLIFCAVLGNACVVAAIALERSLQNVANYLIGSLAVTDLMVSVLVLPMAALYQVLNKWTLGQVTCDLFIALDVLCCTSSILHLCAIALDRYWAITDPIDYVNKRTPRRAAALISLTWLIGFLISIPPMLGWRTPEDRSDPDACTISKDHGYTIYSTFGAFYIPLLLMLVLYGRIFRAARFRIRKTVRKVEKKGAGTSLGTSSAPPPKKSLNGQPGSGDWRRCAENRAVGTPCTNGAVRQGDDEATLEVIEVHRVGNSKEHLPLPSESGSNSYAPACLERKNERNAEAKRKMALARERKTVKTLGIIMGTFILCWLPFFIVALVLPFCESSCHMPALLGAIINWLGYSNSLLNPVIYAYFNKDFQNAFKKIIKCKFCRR
Description: Inhibition of [3H]8-OH DPAT binding.

The mark [6] stands for this setting: read-out: Apomorphine Antagonism ED50, climbing.

Where two headings read alike, the source gives them in different places. Bounds are passed on as bounds.

T1 sequence (P61169 whole entry): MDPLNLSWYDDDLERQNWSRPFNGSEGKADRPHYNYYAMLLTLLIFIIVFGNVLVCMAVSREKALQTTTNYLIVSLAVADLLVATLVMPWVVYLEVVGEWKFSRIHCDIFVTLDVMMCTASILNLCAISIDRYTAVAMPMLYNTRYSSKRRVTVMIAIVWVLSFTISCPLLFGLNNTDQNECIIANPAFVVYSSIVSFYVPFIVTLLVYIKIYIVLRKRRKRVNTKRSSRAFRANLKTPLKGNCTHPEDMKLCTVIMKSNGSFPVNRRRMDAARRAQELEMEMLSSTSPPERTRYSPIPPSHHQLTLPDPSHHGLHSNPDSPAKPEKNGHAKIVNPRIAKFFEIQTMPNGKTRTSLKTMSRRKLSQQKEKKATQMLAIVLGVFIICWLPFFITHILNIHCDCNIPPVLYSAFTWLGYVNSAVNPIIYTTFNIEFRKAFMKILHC

As to `O=C1C2C(C(=O)N1CCCCN1CCN(c3ncccn3)CC1)C1C3CC4C(C32)C41` (stereo not drawn) [Example 1, Endo-2-[4-[4-(2-pyrimidinyl)-1-piperazinyl]butyl]octahydro-4,5,7-metheno-1H-pentaleno[1,2-c]pyrrole-1,3(2H)-dione], the “[3H] Spiroperidol Binding Inhibition, % at 1 μM” value in experiment [1] (1 µM) is 76%. Moreover, the ED50 was determined as 17 mg/kg in experiment [2] (setting [6]) and 55.7 mg/kg in experiment [3]. Further, in experiment [2], the “Apomorphine Antagonism ED50, stereotypy” value is “inactive”. In experiment [4], the “Conditioned Avoidance Shelf-Jump (inhibition of conditioned avoidance responding)” value is recorded as ~ 80%. In addition, the Ki in experiment [5] was 12.8 nM.

In the case of `O=C1C2C(C(=O)N1CCCCN1CCN(c3ncccn3)CC1)C1C3CC4C(C32)C41` (stereo not drawn) [Example 2, Exo-2-[4-[4-(2-pyrimidinyl)-1-piperazinyl]butyl]octahydro-4,5,7-metheno-1H-pentaleno[1,2-c]pyrrole-1,3(2H)-dione], in experiment [1] (1 µM), the “[3H] Spiroperidol Binding Inhibition, % at 1 μM” value is given as 0%. Further, in experiment [2], the “Apomorphine Antagonism ED50, climbing” value was 15.61 mg/kg and the “Apomorphine Antagonism ED50, stereotypy” value is “inactive”. The “Conditioned Avoidance Discrete Trial AB50 (Avoidance Block)” value in experiment [3] was “active”. The “Conditioned Avoidance Shelf-Jump (inhibition of conditioned avoidance responding)” value in experiment [4] is recorded as above 20%. For the same molecule, in experiment [5], the affinity corresponds to a Ki of 40 nM.

For the molecule `O=C1C2C(C(=O)N1CCCCN1CCN(c3cncc(Cl)n3)CC1)C1C3CC4C(C32)C41` (stereo not drawn) [Example 3, Endo-2-[4-[4-(6-chloro-2-pyrazinyl)-1-piperazinyl]butyl]octahydro-4,5,7-metheno-1H-pentaleno[1,2-c]pyrrole-1,3-(2H)-dione], the inhibition at 1 µM in experiment [1] amounted to 44%. Besides, the ED50 came out at 19 mg/kg in experiment [2] (setting [6]) and 46.8 mg/kg in experiment [3]. In addition, the “Apomorphine Antagonism ED50, stereotypy” value in experiment [2] was “inactive”. Moreover, in experiment [4], the “Conditioned Avoidance Shelf-Jump (inhibition of conditioned avoidance responding)” value is above 20%. Further, the Ki in experiment [5] stood at 41.9 nM.

`O=C1C2C(C(=O)N1CCCCN1CCN(c3cnccn3)CC1)C1C3CC4C(C32)C41` (stereo not drawn) [Example 5, Endo-2-[4-[4-(2-pyrazinyl)-1-piperazinyl]butyl]octahydro-4,5,7-metheno-1H-pentaleno[1,2-c]pyrrole-1,3-(2H)-dione] came in with an inhibition at 1 µM in experiment [1] of 25%. For the same molecule, in experiment [2], the “Apomorphine Antagonism ED50, climbing” value is “inactive” and the “Apomorphine Antagonism ED50, stereotypy” value is “inactive”. Moreover, in experiment [3], the “Conditioned Avoidance Discrete Trial AB50 (Avoidance Block)” value was “inactive”. Moreover, the “Conditioned Avoidance Shelf-Jump (inhibition of conditioned avoidance responding)” value in experiment [4] is recorded as ~ 80%. The molecule also showed a Ki in experiment [5] of 94 nM.

In turn, `O=C1C2C3CC4C2C4C3C(=O)N1CCCCN1CCN(c2cncc(Cl)n2)CC1` [Example 6, 2-[4-[4-(6-Chloro-2-pyrazinyl)-1-piperazinyl]butyl]hexahydro-4,6,7-metheno-1H-2-pyridine-1,3-(2H)-dione] returned an inhibition at 1 µM in experiment [1] of 29%. Moreover, the ED50 in experiment [2] (setting [6]) was 1.74 mg/kg; in experiment [2] (read-out: Apomorphine Antagonism ED50, stereotypy), 40.5 mg/kg. In experiment [3], the “Conditioned Avoidance Discrete Trial AB50 (Avoidance Block)” value is listed as “active”. For the same molecule, the “Conditioned Avoidance Shelf-Jump (inhibition of conditioned avoidance responding)” value in experiment [4] was ~ 80%. In experiment [5], this molecule came in with a Ki of 51 nM.

With `O=C1C2C3CC4C2C4C3C(=O)N1CCCCN1CCN(c2ncccn2)CC1` [Example 7, 2-[4-[4-(2-Pyrimidinyl)-1-piperazinyl]butyl]hexahydro-4,6,7-metheno-1H-2-pyridine-1,3-(2H)-dione], the inhibition at 1 µM in experiment [1] amounted to 51%. In addition, in experiment [2], the “Apomorphine Antagonism ED50, climbing” value is “inactive” and the “Apomorphine Antagonism ED50, stereotypy” value was “inactive”. Further, the “Conditioned Avoidance Discrete Trial AB50 (Avoidance Block)” value in experiment [3] is “weak”. In addition, the “Conditioned Avoidance Shelf-Jump (inhibition of conditioned avoidance responding)” value in experiment [4] is on record as ~ 80%. The molecule also yielded an inhibitory constant (Ki) in experiment [5] of 16 nM.

Take `O=C1CC2(CCCC2)CC(=O)N1CCCCN1CCN(c2ncccn2)CC1` [buspirone, reference compound]: the “affinity for 5-HT1A serotonin receptor (in words)” value in experiment [5] (displacement of [3H]8-OH DPAT) is listed as “potent affinity”.

`CN(C)CCCN1c2ccccc2Sc2ccc(Cl)cc21` [chlorpromazine, reference compound]: the “ratio of the ED50 for stereotyped behavior to the ED50 for climbing” value (“ratio of the ED50” below) in experiment [2] was found to be 1.51.

As to `O=C(CCCN1CCC(O)(c2ccc(Cl)cc2)CC1)c1ccc(F)cc1` [haloperidol, reference compound], the “ratio of the ED50” value in experiment [2] came to 1.00.

In the case of `CSc1ccc2c(c1)N(CCC1CCCCN1C)c1ccccc1S2` (stereo not shown) [thioridazine, reference compound], in experiment [2], the “ratio of the ED50” value was 1.83.

In the case of “Exo-2-[4-[4-(6-chloro-2-pyrazinyl)-1-piperazinyl]butyl]octahydro-4,57-metheno-1H-pentaleno[1,2-c]pyrrole-1,3-(2H)-dione [Example 4]”, the “[3H] Spiroperidol Binding Inhibition, % at 1 μM” value in experiment [1] worked out at 54%. Also, in experiment [2], the “Apomorphine Antagonism ED50, climbing” value was “inactive” and the “Apomorphine Antagonism ED50, stereotypy” value is “inactive”. Moreover, the “Conditioned Avoidance Discrete Trial AB50 (Avoidance Block)” value in experiment [3] was found to be 56.16 mg/kg. The “Conditioned Avoidance Shelf-Jump (inhibition of conditioned avoidance responding)” value in experiment [4] is listed as above 20%. Also, the “Inhibition of [3H] 8-OH DPAT Binding, % at 1 μM” value in experiment [5] (1 μM) is given as 76%.

The Ki is a dissociation constant, usually derived from enzyme kinetics or from competition with a known ligand. Read a high Ki as weaker binding. Broadly, the inhibition is how much of the control response was suppressed.
